Source: patent US20140004201A1, “Treatment of Vascular Diseases Using Encapsulated Cells Encoding and Secreting GLP-1, or a Fragment or Variant Thereof” (Biocompatibles UK Ltd., priority 2010, published 2014)
Where no end group is shown, it is not given here.

Columns and labels:
Rin-5F cells = assay: Anti-apoptotic efficacy, cycloheximid induced apoptosis; type: cell-based, rat; details: 24 hours
Description: 40.000 Rin-5F cells were seeded per 96 well and cultivated for 2 days in RPMI supplemented with 1% L-Glutamin and 10% fetal calf serum. […] After 24 hours cell viability is quantified using AlamarBlue.

[1] = In vitro human plasma stability of GLP-1 CM peptides; type: in vitro ADME; details: 20 ng/ml, 37° C., 3 hours
Description: Synthetic GLP-1 peptides (SEQ ID NO: 1syn, SEQ ID NO: 6syn, SEQ ID NO: 7rec, SEQ ID NO: 8syn) were incubated at concentrations of 20 ng/ml with human plasma at 37° C. and 5% CO2, for 3 hours. Dipeptidylpeptidase activity of the plasma was inhibited by a DPP-IV inhibitor (#DPP4, Biotrend).

| Molecule | anti-apoptotic effect (Rin-5F cells; 1 nM CM1, cycloheximid, serum free, AlamarBlue) | cell viability (Rin-5F cells; CHX 10 μg/ml and 100 μg/ml, different concentrations of CM1) | stability in human plasma in vitro (active GLP) [1] |
| --- | --- | --- | --- |
| GLP-1(7-37)-IP2-GLP-1(7-37) [CM1] | significant anti-apoptotic effect | significant (p<0.01) increase of cell viability |  |
| HAEGTFTSDVSSYLEGQAAKEFIAWLVKGRGRRDFPEEVAIAEELG [SEQ ID NO:8, GLP-1(7-37)-IP2] |  |  | significantly stabilized |
| GLP-1(7-37)-IP2-RR-GLP2 (protein, Description of sequence SEQ ID No 7 (ID7rec, CM2) corresponds to GLP-1(7-37)-IP2-RR-GLP2, 83 aa, 9.4 kD) HAEGTFTSDVSSYLEGQAAKEFIAWLVKGRGRRDFPEEVAIAEELGRRHADGSFSDEMSTILDNLATRDFINWLIQTKITDKK |  |  | significantly stabilized |
